Converted amounts (≈) assume the structure as drawn. Bridge positions count the residues as written; N and C are the ends. Peptide text beside a SMILES is read from it.
Columns and labels:
[1] = test system: Absidia corymbifera NRRL 6251; type: cell-based; conditions: potato dextrose broth, 24 h, 37 °C, OD600 <0.1 in at least 3 of 4 wells, dose range 2 to 128 µg/mL; shaded values previously reported ref 17
Procedure, shortened: (§1)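 MIC = lowest dAMP level giving OD600 <0.1 in at least three of four replicate wells after 24 h at 37 °C. Inoculum ~10^6 CFU/mL in 2X cation-adjusted Mueller–Hinton broth; potato dextrose broth for the fungal isolate. Test range 2–128 μg/mL plus untreated.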

[2] = test system: Aspergillus flavus MYA-1004; type: cell-based; conditions: potato dextrose broth, 24 h, 37 °C, OD600 <0.1 in at least 3 of 4 wells, dose range 2 to 128 µg/mL; shaded values previously reported ref 17
Procedure, shortened: as §1

[3] = test system: Aspergillus flavus MYA-3651; type: cell-based; conditions: potato dextrose broth, 24 h, 37 °C, OD600 <0.1 in at least 3 of 4 wells, dose range 2 to 128 µg/mL; shaded values previously reported ref 17
Procedure, shortened: as §1

[4] = test system: Aspergillus fumigatus 9648; type: cell-based; conditions: potato dextrose broth, 24 h, 37 °C, OD600 <0.1 in at least 3 of 4 wells, dose range 2 to 128 µg/mL; shaded values previously reported ref 17
Procedure, shortened: as §1

[5] = test system: Aspergillus fumigatus 9651; type: cell-based; conditions: potato dextrose broth, 24 h, 37 °C, OD600 <0.1 in at least 3 of 4 wells, dose range 2 to 128 µg/mL; shaded values previously reported ref 17
Procedure, shortened: as §1

[6] = test system: Candida albicans Y-326; type: cell-based; conditions: potato dextrose broth, 24 h, 37 °C, OD600 <0.1 in at least 3 of 4 wells, dose range 2 to 128 µg/mL; shaded values previously reported ref 17
Procedure, shortened: as §1

[7] = test system: Candida albicans Y-6359; type: cell-based; conditions: potato dextrose broth, 24 h, 37 °C, OD600 <0.1 in at least 3 of 4 wells, dose range 2 to 128 µg/mL; shaded values previously reported ref 17
Procedure, shortened: as §1

[8] = test system: Candida krusei Y-27803; type: cell-based; conditions: potato dextrose broth, 24 h, 37 °C, OD600 <0.1 in at least 3 of 4 wells, dose range 2 to 128 µg/mL; shaded values previously reported ref 17
Procedure, shortened: as §1

[9] = test system: Candida krusei Y-27825; type: cell-based; conditions: potato dextrose broth, 24 h, 37 °C, OD600 <0.1 in at least 3 of 4 wells, dose range 2 to 128 µg/mL; shaded values previously reported ref 17
Procedure, shortened: as §1

[10] = test system: Candida parapsilosis Y-1761; type: cell-based; conditions: potato dextrose broth, 24 h, 37 °C, OD600 <0.1 in at least 3 of 4 wells, dose range 2 to 128 µg/mL; shaded values previously reported ref 17
Procedure, shortened: as §1

[11] = test system: Candida parapsilosis Y-1763; type: cell-based; conditions: potato dextrose broth, 24 h, 37 °C, OD600 <0.1 in at least 3 of 4 wells, dose range 2 to 128 µg/mL; shaded values previously reported ref 17
Procedure, shortened: as §1

[12] = test system: E. cloacae 6053; type: cell-based; conditions: cation adjusted Mueller-Hinton broth, ~10^6 CFU/mL, 24 h, 37 °C, OD600 <0.1 in at least 3 of 4 wells, 2-128 μg/mL; shaded values previously reported ref 18
Procedure, shortened: as §1

[13] = test system: E. cloacae 6054; type: cell-based; conditions: cation adjusted Mueller-Hinton broth, ~10^6 CFU/mL, 24 h, 37 °C, OD600 <0.1 in at least 3 of 4 wells, 2-128 μg/mL; shaded values previously reported ref 18
Procedure, shortened: as §1

[14] = test system: Fusarium solani NRRL 28548; type: cell-based; conditions: potato dextrose broth, 24 h, 37 °C, OD600 <0.1 in at least 3 of 4 wells, dose range 2 to 128 µg/mL; shaded values previously reported ref 17
Procedure, shortened: as §1

[15] = test system: Mucor circinelloides NRRL 3631; type: cell-based; conditions: potato dextrose broth, 24 h, 37 °C, OD600 <0.1 in at least 3 of 4 wells, dose range 2 to 128 µg/mL; shaded values previously reported ref 17
Procedure, shortened: as §1

[16] = test system: S. epidermis ATCC 51625; type: cell-based; conditions: cation adjusted Mueller-Hinton broth, ~10^6 CFU/mL, 24 h, 37 °C, OD600 <0.1 in at least 3 of 4 wells, 2-128 μg/mL; shaded values previously reported ref 18
Procedure, shortened: as §1

[17] = test system: K. pneumonia 6069; type: cell-based, Klebsiella pneumoniae; conditions: cation adjusted Mueller-Hinton broth, ~10^6 CFU/mL, 24 h, 37 °C, OD600 <0.1 in at least 3 of 4 wells, 2-128 μg/mL; shaded values previously reported ref 18
Procedure, shortened: as §1

[18] = test system: K. pneumonia ATCC 10031; type: cell-based, Klebsiella pneumoniae; conditions: cation adjusted Mueller-Hinton broth, ~10^6 CFU/mL, 24 h, 37 °C, OD600 <0.1 in at least 3 of 4 wells, 2-128 μg/mL; shaded values previously reported ref 18
Procedure, shortened: as §1

[19] = test system: P. aeruginosa 6186; type: cell-based, Pseudomonas aeruginosa; conditions: cation adjusted Mueller-Hinton broth, ~10^6 CFU/mL, 24 h, 37 °C, OD600 <0.1 in at least 3 of 4 wells, 2-128 μg/mL; shaded values previously reported ref 18
Procedure, shortened: as §1

[20] = test system: P. aeruginosa ATCC 19660; type: cell-based, Pseudomonas aeruginosa; conditions: cation adjusted Mueller-Hinton broth, ~10^6 CFU/mL, 24 h, 37 °C, OD600 <0.1 in at least 3 of 4 wells, 2-128 μg/mL; shaded values previously reported ref 18
Procedure, shortened: as §1

[21] = test system: P. aeruginosa ATCC 27853; type: cell-based, Pseudomonas aeruginosa; conditions: cation adjusted Mueller-Hinton broth, ~10^6 CFU/mL, 24 h, 37 °C, OD600 <0.1 in at least 3 of 4 wells, 2-128 μg/mL; shaded values previously reported ref 18
Procedure, shortened: as §1

[22] = test system: P. aeruginosa 19660 (Xen5 luciferase); experiment: Bioluminescent time-kill assay; type: cell-based, Pseudomonas aeruginosa; conditions: 8 μg/mL; RP553 at 60 min; bioluminescence
Source text: Fungal and bacterial strains were obtained from American Type Culture Collection (ATCC, Manassas, VA, USA) or the clinical isolate collection at Trideum Biosciences (Frederick, MD, USA) and are presented in Table 1 and Table 2, respectively. Bioluminescence strains of P. aeruginosa 19660, transfected with the Xen5 luciferase gene, and S. aureus ATCC R 49525TM (Wright), transfected with the Xen36 luciferase gene, were obtained from Perkin Elmer (Waltham, MA, USA).
Real-time killing of bacterial cells, P. aeruginosa or S. aureus, and mammalian cytotoxicity to assess dAMP off-target toxicity was evaluated using bioluminescent cells. The L929 fibroblast cells (ATCC, Manassas, VA, USA) were made bioluminescent by transfection with a luciferase gene. Cells (1 × 10^4 cells, 100 μL) were plated in 96-well black-walled plates and the candidate dAMPs were 2-fold serially diluted from specified concentrations in growth medium supplemented with 150 μg/mL D-luciferin. Each concentration was performed in triplicate, with the final volume being 200 μL. Imaging was performed at select times after the addition of the dAMP, and compared to concurrently run vehicle-control, using an IVIS Lumina imaging system (Caliper Life Sciences, Inc., Hopkinton, MA, USA). For imaging, the 96-well plate was positioned on the stage (12.5-cm field of view), with an open emission filter, binning of 4, and f-stop 1 and a 1-min exposure time. Monitoring bioluminescence allows assessment of the kinetics of cellular viability as there is a tight correlation between the bioluminescent signal and cell viability. Data analysis was performed using the Living Image software program (version 4.3, Caliper Life Sciences, Inc., Hopkinton, MA, USA).
Figure 3 RP553, RP556, RP557 rapidly destroy P. aeruginosa and S. aureus. The bioluminescence of viable P. aeruginosa 19,660 and S. aureus 49,525 cells was quantitated in real time with an IVIS Lumina bioimaging system. Data represent the mean ± SE of triplicate replicates from two independent experiments. For some points, the error bars are shorter than the height of the symbols.

[23] = test system: Candida biofilm; conditions: cited from earlier work
Source text: (§2) Early and empiric treatment is required due to the rapid emergence of both bacterial and fungal resistance and resilience due to biofilm formation multi-drug resistant organisms and their associated biofilms play a significant role in the pathogenicity and chronicity of wound infections. The resistance of bacteria and fungi residing in biofilms is due to the biofilm matrix acting as a fortified barrier and the presence of slow-growing microbes with poor metabolic activity, known as persisters. The dAMPs direct perturbation of cellular membranes is effective at eradicating biofilms. RP55 ...

[24] = test system: preformed and mature MRSA biofilm; conditions: cited from earlier work
Source text: as §2

SMILES: CC[C@H](C)[C@@H]1NC(=O)CNC(=O)[C@H](CCCCN)NC(=O)[C@H](Cc2ccc(O)cc2)NC(=O)[C@@H]2CSSC[C@H](NC1=O)C(=O)N[C@@H](Cc1ccccc1)C(=O)N[C@@H](CCCCN)C(=O)N[C@@H](CCCCN)C(=O)N[C@H](C(=O)N[C@@H](CCCCN)C(N)=O)CSSC[C@H](NC(=O)[C@H](Cc1ccccc1)NC(=O)[C@@H](N)CCCNC(=N)N)C(=O)N[C@@H](Cc1c[nH]c3ccccc13)C(=O)N[C@@H](CCCCN)C(=O)N[C@@H](C(C)C)C(=O)N2 [RP557] (H-RFCWKVCYKGICFKKCK-NH2; disulfide 3-16, 7-12)
- MIC against Absidia corymbifera NRRL 6251 [1]: 2 µg/mL (≈ 0.936 µM)
- MIC against Aspergillus flavus MYA-1004 [2]: 64 µg/mL (≈ 30 µM)
- MIC against Aspergillus flavus MYA-3651 [3]: 64 µg/mL (≈ 30 µM)
- MIC against Aspergillus fumigatus 9648 [4]: 64 µg/mL (≈ 30 µM)
- MIC against Aspergillus fumigatus 9651 [5]: 64 µg/mL (≈ 30 µM)
- MIC against Candida albicans Y-326 [6]: 16 µg/mL (≈ 7.49 µM)
- MIC against Candida albicans Y-6359 [7]: 4 µg/mL (≈ 1.87 µM)
- MIC against Candida krusei Y-27803 [8]: 16 µg/mL (≈ 7.49 µM)
- MIC against Candida krusei Y-27825 [9]: 16 µg/mL (≈ 7.49 µM)
- MIC against Candida parapsilosis Y-1761 [10]: 16 µg/mL (≈ 7.49 µM)
- MIC against Candida parapsilosis Y-1763 [11]: 2 µg/mL (≈ 0.936 µM)
- MIC against E. cloacae 6053 [12]: 8 µg/mL (≈ 3.75 µM)
- MIC against E. cloacae 6054 [13]: 8 µg/mL (≈ 3.75 µM)
- MIC against Fusarium solani NRRL 28548 [14]: 2 µg/mL (≈ 0.936 µM)
- MIC against Mucor circinelloides NRRL 3631 [15]: 64 µg/mL (≈ 30 µM)
- MIC against S. epidermis ATCC 51625 [16]: 8 µg/mL (≈ 3.75 µM)
- MIC against K. pneumonia 6069 [17]: 4 µg/mL (≈ 1.87 µM)
- MIC against K. pneumonia ATCC 10031 [18]: 8 µg/mL (≈ 3.75 µM)
- MIC against P. aeruginosa 6186 [19]: 4 µg/mL (≈ 1.87 µM)
- MIC against P. aeruginosa ATCC 19660 [20]: 4 µg/mL (≈ 1.87 µM)
- MIC against P. aeruginosa ATCC 27853 [21]: 4 µg/mL (≈ 1.87 µM)
- P. aeruginosa killing (in words) [22]: immediate eradication
- disruption of Candida biofilm [23]: completely disrupted
- disruption of preformed and mature MRSA biofilm [24]: completely disrupted

— publication PMC7559897, “Designed Antimicrobial Peptides Against Trauma-Related Cutaneous Invasive Fungal Wound Infections” (Journal of Fungi, 2020)
